Patent US11352604B2, “Method of making cardiomyocytes from human pluripotent cells” (Wisconsin Alumni Research Foundation, priority 2016, dated 2022)

Tests used:
Assay type in all cases: cell-based, human
hPSC-CMs [1] = assay: Flow cytometry of differentiated cells (cTnT, MLC2v)
Protocol: Flow cytometry for internal antigens was done on dissociated cells using the same blocking, washing, secondary antibodies, and buffers as internal antigen immunofluorescence described above using mlc2v (proteintech, 1:100) and cardiac troponin T (Thermo Fisher Scientific, 1:200) in the 19-9-11 iPS cell line. Between washes and staining steps, dissociated cells were pelleted at 1,100 g for 5 minutes. Blocking and antibody staining steps were done in a volume of 100 μL, and washing steps in 1 mL in Eppendorf™ tubes.
Flow cytometry for live cell surface antigens was done on dissociated cells of the 19-9-11 iPS cell line with Thy1 biotin (1:200 Biolegend, with Life Technologies streptavidin direct conjugate at 1:1000) and SIRPα (1:200, Biolegend) in K20 and then analyzed at the UWCCC Flow Cytometry Laboratory using a BD LSRII Fortessa flow cytometer. For progenitor flow experiments, cells were dissociated as above for progenitor dissociation, centrifuged at 200×g, subjected to FACS to concentrate cells, and resuspended in 100 μL, of K2 media+rockI/Jag1 PE, BD Biosciences (1:20); Notch2 APC R&D Biosystems (1:10) and analyzed on either a BD FACSariaII cell sorter or BD LSRII Fortessa flow cytometer.

hPSC-CMs [2] = assay: Transmission electron microscopy of sarcomeres; details: day 30 hPSC-CMs from pI:C-treated progenitors
Description: Differentiated H9-cTnT-GFP line hPSC-CMs at day 30 were washed twice with sodium phosphate buffer and fixed and maintained in sodium phosphate buffer with 4% paraformaldehyde (PFA) until pelleting and processing for TEM as previously described (Raval et al., 2015).

hPSC-CMs [3] = assay: Cardiomyocyte yield and purity in GiWi differentiation; details: day 30, pI:C alone vs untreated
Protocol: To differentiate cardiomyocytes from hPSCs, the small molecule temporal modulation of the Wnt pathway (GiWi) monolayer protocol was used essentially as previously described (Lian et al., 2012). Human embryonic or induced pluripotent stem cells were dissociated with Versene (Thermo Fisher Scientific) for 6 minutes at 37° C., pipetted up and down 40 times, counted with a hemocytometer, spun down at 100×g for 5 minutes, and resuspended and seeded for differentiation at 1.5 million cells per well in 6 well plates or 0.4 million per well in 12 well plates in mTeSR® on stem-cell verified Matrigel® (WiCell) containing 10 μM Y-27632 ROCK-inhibitor (Tocris). After four days in mTeSR® (WiCell), at which point cells grew to 100 percent confluence, medium was switched to RPMI supplemented with B27 supplement not containing insulin (Thermo Fisher Scientific) and containing 12 μM of the Wnt agonist CHIR99021 (Tocris) for exactly 24 hours. Media was then changed to RPMI supplemented with B27 not containing insulin for exactly 48 hours. Then medium was then switched at day 3 to RPMI supplemented with B27 not containing insulin and containing 5 μM IWP2 (Tocris). At day 5, media was switched to RPMI supplemented with B27 not containing insulin for two days. At day 7 and every three days afterward, medium was replaced with RPMI supplemented with B27 containing insulin (Thermo Fisher Scientific). […]

NFκB signaling = assay: Western blot of NFκB and phosphorylated IκB in day 5 cardiac progenitors; details: pI:C days 3-5
Protocol: Frozen cell pellets from cardiac progenitors in the 19-9-11 iPS cell line were thawed and protein isolated in EBC lysis buffer (Boston BioProducts) supplemented with complete protease inhibitor tablets (Roche) rocking on ice for 1 hour to cause cell lysis. After the observation of lysis material and cell debris, protein/debris mixtures were centrifuged at >18,000×g for 15 minutes at 4° C. The protein-containing supernatant was quantified in a plate reader using the Biorad DC protein assay. 40 to 80 μg of protein was loaded in 6× βmercaptoethanol-containing Laemmli sample buffer (Biorad), boiled for 10 minutes at 95° C., then run on a 4-20% Criterion™ TGX™ gel (Biorad) for 30 minutes at 200 V. Proteins were then transferred at 10 V overnight at 4° C. to Immobilon-FL™ PVDF in a Criterion™ plate transfer cassette in Tris-Glycine transfer buffer (Biorad) with 20% methanol. Membranes were blocked for 1 hour at RT in Licor PBS blocking buffer, and then incubated with primary antibodies overnight 4° C. Antibodies were used at a dilution of 1:1000 (goat anti-Jag1, R&D systems) or 1:3000 (GAPDH, sigma) in Licor PBS blocking buffer. […] Licor secondary donkey anti-rabbit or anti-mouse antibodies were used at 1:15,000 for 1 hour at RT in Licor PBS blocking buffer, and after washing membranes were analyzed in a Licor Odyssey detection system. […]

polyinosinic-polycytidylic acid [pI:C]
purity of cardiomyocytes marked by cardiac troponin T (cTnT) expression (hPSC-CMs [1]; comparable for pI:C-treated and untreated progenitors, hES and hiPS cell lines): 80-95%
percentage of mlc2v+/cTnT+ hPSC-CMs (hPSC-CMs [1]; day 30): markedly increased
sarcomere ultrastructure (hPSC-CMs [2]): longer, more regular and compact sarcomeres that contained I-bands
yield of cardiomyocytes (hPSC-CMs [3]): more than double the yield
phosphorylated IκB (NFκB pathway activation) (NFκB signaling): showed expression of phosphorylated (inactivated) inhibitor IκB
